Measurements published in patent publication US8034811B2, “Hydroxamic acid esters and pharmaceutical use thereof” (Leo Pharma A/S, priority 2003, dated 2011).

Each molecule was assayed against T1, human intracellular domain of KDR (VEGF Receptor-2) (Homo sapiens, UniProt P35968) (assay: In vitro KDR kinase assay). Conditions: IC50 as molar concentration; GST-KDR-cyt, substrate phospholipase Cγ, ATP 100 μM, 30 min room temperature, time-resolved fluorometry.
T1 construct: A fusion protein containing the intracellular domain (amino acids 793 to 1357) of the KDR and N-terminally tagged to GST; made in house; host or cells: Sf9 insect cells (baculovirus, pDEST20) for GST-KDR-cyt; E. coli BL21 (pGEX-4T-1) for GST-PLCγ
Type: biochemical
How it was run: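 Sf9-expressed, constitutively active human KDR intracellular domain, diluted 3000–3500 fold, incubated 30 min at room temperature with 100 μM ATP on phospholipase Cγ-coated wells in TBS pH 7.4 with Mg acetate, compounds up to 10 μM, 0.1% DMSO max. Phosphotyrosine detected by Eu-PY-20 time-resolved fluorescence; IC50 by linear interpolation around 50% inhibition.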

T1 sequence (P35968 794-1356 limits assumed): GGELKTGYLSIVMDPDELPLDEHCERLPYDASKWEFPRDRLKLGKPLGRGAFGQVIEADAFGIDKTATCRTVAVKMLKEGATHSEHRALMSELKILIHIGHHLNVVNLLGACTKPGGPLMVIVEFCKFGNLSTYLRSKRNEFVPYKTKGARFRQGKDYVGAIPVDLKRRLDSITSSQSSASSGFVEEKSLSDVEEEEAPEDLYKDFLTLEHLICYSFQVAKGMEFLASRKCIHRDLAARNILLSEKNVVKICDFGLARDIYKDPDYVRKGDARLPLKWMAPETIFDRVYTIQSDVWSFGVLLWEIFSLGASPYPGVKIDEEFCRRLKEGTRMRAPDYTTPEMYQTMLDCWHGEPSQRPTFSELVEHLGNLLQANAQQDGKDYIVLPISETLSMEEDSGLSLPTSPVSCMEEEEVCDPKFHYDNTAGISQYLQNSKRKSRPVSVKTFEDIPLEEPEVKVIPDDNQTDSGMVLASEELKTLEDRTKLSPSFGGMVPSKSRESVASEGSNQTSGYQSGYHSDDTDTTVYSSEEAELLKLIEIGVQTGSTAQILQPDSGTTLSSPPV

| SMILES | IC50 [nM] |
| --- | --- |
| CC(=O)OCC(=O)Nc1cc(CNc2ccccc2C(=O)NOCc2ccc(C#N)cc2)ccn1 [compound 222] | 6.31 |
| CC(=O)OCC(=O)Nc1cc(CNc2ccccc2C(=O)NOCC2CCCC2)ccn1 [compound 223] | 31.6 |
| N#Cc1ccc(CONC(=O)c2ccccc2NCc2ccnc(NC(=O)CO)c2)cc1 [compound 224] | 6.31 |
| CCOC(=O)Nc1cc(CNc2ccccc2C(=O)NOCc2ccc(C#N)cc2)ccn1 [compound 225] | 7.94 |
| N#Cc1ccc(CONC(=O)c2ccccc2NCc2ccnc(NC(=O)C3CC3)c2)cc1 [compound 226] | 6.31 |
| O=C(NOCC1CCCC1)c1ccccc1NCc1ccnc(NC(=O)C2CC2)c1 [compound 227] | 5.01 |
| O=C(CC1NC(=O)NC1=O)Nc1cc(CNc2ccccc2C(=O)NOCC2CCCC2)ccn1 (centres unmarked) [compound 228] | 6.31 |
| Nc1cc(CNc2ccccc2C(=O)NOCC2CCCC2)ccn1 [compound 229] | 7.94 |
| O=C(NOCc1ccccc1)c1ccccc1NCc1ccnc2ccccc12 [compound 230] | 25.1 |
| N#Cc1ccc(CONC(=O)c2ccccc2NCc2ccnc3ccccc23)cc1 [compound 231] | 39.8 |
| Cc1nc(CONC(=O)c2ccccc2NCc2ccnc3ccccc23)cs1 [compound 232] | 20 |
| O=C(NOCC1CCCC1)c1ccccc1NCc1ccnc2ccccc12 [compound 233] | 10 |
| O=C(NOCC1CCOCC1)c1ccccc1NCc1ccnc2ccccc12 [compound 234] | 63.1 |
| COc1ccc(CNc2ccccc2C(=O)NOCc2ccc(C#N)cc2OC)cn1 [compound 235] | 63.1 |
| COc1ccc(CNc2ccccc2C(=O)NOCc2ccccc2)cn1 [compound 236] | 79.4 |
| COc1ccc(CNc2ccccc2C(=O)NOCc2ccc(C#N)cc2)cn1 [compound 237] | 79.4 |
| CC(Nc1ccccc1C(=O)NOCc1ccc(C#N)cc1)c1ccncc1 (centres unmarked) [compound 244] | 63.1 |
| CNC(=O)Nc1cc(CNc2ccccc2C(=O)NOCC2CCCCO2)ccn1 (centres unmarked) [compound 245] | 7.94 |
| COCC(=O)Nc1cc(CNc2ccccc2C(=O)NOCC2CCCC2)ccn1 [compound 246] | 20 |
| N#Cc1ccc(CONC(=O)c2ccccc2NCc2ccc(=O)[nH]c2)cc1 [compound 247] | 50.1 |
